Here are results for 15 compounds from patent US20120142685A1, “ORGANIC COMPOUNDS” (priority 2007, published 2012).

Experiment [1] concerns the target T1, protein kinase D2 (PKD2) (Homo sapiens, UniProt Q9BZL6).
T1 construct: This assay is performed with full length wild-type enzyme purchase from Invitrogen; purchased Invitrogen
T1 sequence (Q9BZL6 1-878): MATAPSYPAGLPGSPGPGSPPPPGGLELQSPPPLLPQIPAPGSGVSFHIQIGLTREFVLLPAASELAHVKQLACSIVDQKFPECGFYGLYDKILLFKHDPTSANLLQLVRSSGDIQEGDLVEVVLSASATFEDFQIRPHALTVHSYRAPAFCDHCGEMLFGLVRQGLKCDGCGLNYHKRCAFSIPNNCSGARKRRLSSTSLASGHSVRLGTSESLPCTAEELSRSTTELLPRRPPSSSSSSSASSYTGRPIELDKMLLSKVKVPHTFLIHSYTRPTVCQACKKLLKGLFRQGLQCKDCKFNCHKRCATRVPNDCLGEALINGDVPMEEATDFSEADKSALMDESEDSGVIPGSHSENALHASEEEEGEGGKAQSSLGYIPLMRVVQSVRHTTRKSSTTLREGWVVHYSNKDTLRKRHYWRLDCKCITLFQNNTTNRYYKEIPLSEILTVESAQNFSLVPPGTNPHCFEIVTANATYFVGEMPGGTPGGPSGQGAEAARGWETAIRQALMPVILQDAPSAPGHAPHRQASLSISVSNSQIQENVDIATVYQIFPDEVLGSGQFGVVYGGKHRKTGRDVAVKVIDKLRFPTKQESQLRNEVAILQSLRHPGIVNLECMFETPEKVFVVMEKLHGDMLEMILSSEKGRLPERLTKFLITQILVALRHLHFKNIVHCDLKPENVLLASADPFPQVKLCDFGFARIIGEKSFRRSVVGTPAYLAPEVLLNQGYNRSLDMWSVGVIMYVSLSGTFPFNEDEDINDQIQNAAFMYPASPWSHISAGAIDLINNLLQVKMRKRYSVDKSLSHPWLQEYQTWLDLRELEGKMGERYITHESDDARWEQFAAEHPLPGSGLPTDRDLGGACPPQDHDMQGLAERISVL
Nature of the experiment: PKD2 TR-FRET (LANCE) kinase assay. The experiment is classed as biochemical. The text has this: (§1) The assay to measure protein kinase D2 (PKD2) activity is a time-resolved fluorescence resonance transfer (TR-FRET) assay using PerkinElmer's LANCE™ technology. In this case, a biotinylated syntide-2 peptide is used as the substrate in this reaction. Phosphorylation of the syntide-2 substrate is detected by a specific antibody that recognizes the phosphorylated peptide. A second fluorophore, APC, is conjugated to streptavidin that binds the biotinylated syntide-2 peptide. […] Therefore, when the europium labeled secondary antibody binds on the phosphorylated peptide, it is brought into close contact with the APC and excites this fluorophore.
(§2) This assay is performed with full length wild-type enzyme purchase from Invitrogen. The reaction buffer consists of 35 mM Tris-HCl pH7.5, 5 mM MgCl2, 0.02% Tween-20, 20 μM ATP, 1 mM DTT and 0.2 μg/mL PKD2 enzyme. The enzyme reaction is initiated by the addition of 2 μM syntide-2 peptide substrate and the reaction carried out for 50 minutes at room temperature. The reaction is stopped by a stop/detection buffer consisting of 50 mM EDTA, 0.18 mg/mL rabbit polyclonal anti-phospho syntide-2 antibody, 0.5 nM europium labeled anti-rabbit IgG and 10 nM streptavidin conjugated APC. After a one hour incubation with the stop/detection buffer, the reaction is read on an Envision 2100 Reader using a LANCE™ Eu/APC dual protocol. […] IC50 values are calculated using an Activity Base (IDBS) software program.
A general note: Time-resolved FRET reads energy transfer from a long-lived donor to a nearby acceptor.

For experiment [2], the target named is T2, protein kinase D3 (PKD3) (Homo sapiens, UniProt O94806).
T2 construct: This assay is performed with full length wild-type enzyme that is purchased from Invitrogen; purchased Invitrogen
T2 sequence (O94806 1-890): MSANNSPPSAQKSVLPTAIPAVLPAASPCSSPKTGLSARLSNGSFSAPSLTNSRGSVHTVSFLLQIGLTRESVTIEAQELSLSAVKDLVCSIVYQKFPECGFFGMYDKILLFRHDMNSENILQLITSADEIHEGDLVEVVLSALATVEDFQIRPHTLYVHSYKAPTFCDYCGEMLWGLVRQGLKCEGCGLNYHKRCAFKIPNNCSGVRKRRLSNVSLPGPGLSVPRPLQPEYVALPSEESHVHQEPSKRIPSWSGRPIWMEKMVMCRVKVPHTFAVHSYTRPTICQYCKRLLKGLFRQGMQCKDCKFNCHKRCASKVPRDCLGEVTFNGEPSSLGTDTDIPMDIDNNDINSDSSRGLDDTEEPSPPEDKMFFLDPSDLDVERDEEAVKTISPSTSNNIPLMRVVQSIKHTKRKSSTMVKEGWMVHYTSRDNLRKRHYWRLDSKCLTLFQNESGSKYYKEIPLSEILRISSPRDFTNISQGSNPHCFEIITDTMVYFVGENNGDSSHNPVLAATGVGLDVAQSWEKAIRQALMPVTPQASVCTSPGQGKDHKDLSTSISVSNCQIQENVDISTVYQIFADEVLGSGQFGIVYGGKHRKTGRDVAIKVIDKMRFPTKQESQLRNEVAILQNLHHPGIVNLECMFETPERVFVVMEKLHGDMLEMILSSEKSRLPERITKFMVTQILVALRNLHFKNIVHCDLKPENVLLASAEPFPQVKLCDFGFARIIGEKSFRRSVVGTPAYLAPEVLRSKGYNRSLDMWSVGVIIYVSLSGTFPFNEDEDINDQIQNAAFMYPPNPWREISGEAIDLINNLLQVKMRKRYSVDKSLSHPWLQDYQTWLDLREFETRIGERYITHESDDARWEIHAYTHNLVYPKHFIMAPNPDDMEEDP
Nature of the experiment: PKD3 TR-FRET (LANCE) kinase assay. The experiment is classed as biochemical.
Text: as §1, with “D3 (PKD3)” for “D2 (PKD2)”
as §2, with “that is purchased” for “purchase”, “PKD3” for “PKD2”, “LANCET™” for “LANCE™”

Setting [3] is: full length wild-type enzyme, 20 μM ATP, read-out: Inhibitory Activity PKD2.
[4] abbreviates: full length wild-type enzyme, 20 μM ATP, read-out: Inhibitory Activity PKD3.

SMILES strings stand for the structures. Like-named read-outs stand apart in the source and are kept apart here.

Turning to `CNc1cc(-c2cc3cnccc3c(NCCCO)n2)ccn1` [Example 1], the IC50 was determined as 903 nM in experiment [1] (setting [3]) and 227 nM in experiment [2] (setting [4]).
On to `CNc1cc(-c2cc3cnccc3c(NC)n2)ccn1` [Example 2, 1-Methylamino-3-(2-methylaminopyridin-4-yl)-[2,6]-naphthyridine], for which the IC50 is 753 nM in experiment [1] and 450 nM in experiment [2].
As for `c1cc2c(N3CCNCC3)nc(-c3ccnc(NC4CCCCC4)c3)cc2cn1` [Example 3, Cyclohexyl-[4-(1-piperazin-1-yl-[2,6]naphthyridin-3-yl)pyridin-2-yl]amine], the IC50 in experiment [1] (setting [3]) and in experiment [2] (setting [4]) was 0.3 nM throughout.
For the compound `c1ccc(Nc2cc(-c3cc4cnccc4c(N4CCNCC4)n3)ccn2)cc1` [Example 4, Phenyl-[4-(1-piperazin-1-yl-[2,6]naphthyridin-3-yl)pyridin-2-yl]amine], the IC50 was found to be 40 nM in experiment [1] (setting [3]) and 8 nM in experiment [2] (setting [4]).
With `OCCNc1nc(-c2ccnc(NC3CCCCC3)c2)cc2cnccc12` [Example 5, 2-[3-(2-Cyclohexylaminopyridin-4-yl)-[2,6]naphthyridin-1-ylamino]ethanol], the IC50 in experiment [1] (setting [3]) was 1370 nM; in experiment [2] (setting [4]), 339 nM.
The corresponding values for `CC(C)Nc1cc(-c2cc3cnccc3c(NCCO)n2)ccn1` [Example 6, 2-[3-(2-Isopropylaminopyridin-4-yl)-[2,6]naphthyridin-1-ylamino]ethanol] are 497 nM and 120 nM.
For `COc1cccc(Nc2cc(-c3cc4cnccc4c(NCCO)n3)ccn2)c1` [Example 7], in that order: 195 nM and 62 nM.
The corresponding values for `CN(C)CCNc1nc(-c2ccnc(NC3CCCCC3)c2)cc2cnccc12` [Example 8, N-[3-(2-Cyclohexylaminopyridin-4-yl)-[2,6]naphthyridin-1-yl]-N′,N′-dimethylethane-1,2-diamine] are 259 nM and 58 nM.
Consider `CN(C)CCNc1nc(-c2ccnc(Nc3ccccc3)c2)cc2cnccc12` [Example 9, N,N-Dimethyl-N′-[3-(2-phenylaminopyridin-4-yl)-[2,6]naphthyridin-1-yl]-ethane-1,2-diamine], for which the IC50 in experiment [1] (setting [3]) worked out at 169 nM; in experiment [2] (setting [4]), 39 nM.
For `NC(=O)C1CCN(c2nc(-c3ccnc(NC4CCCCC4)c3)cc3cnccc23)CC1` [Example 10, 1-[3-(2-Cyclohexylaminopyridin-4-yl)-[2,6]naphthyridin-1-yl]piperidine-4-carboxylic acid amide], the results for the IC50 in experiment [1] and in experiment [2] (setting [4]) were 414 nM and 83 nM, respectively.
For the compound `CC(=O)N1CCN(c2nc(-c3ccnc(NC4CCCCC4)c3)cc3cnccc23)CC1` [Example 11, 1-{4-[3-(2-Cyclohexylaminopyridin-4-yl)-[2,6]naphthyridin-1-yl]piperazin-1-yl}ethanone], the IC50 in experiment [1] (setting [3]) was 137 nM; in experiment [2] (setting [4]), 23 nM.
In the case of `CN(C)CC1CCN(c2nc(-c3ccnc(NC4CCCCC4)c3)cc3cnccc23)CC1` [Example 12, Cyclohexyl-{4-[1-(4-dimethylaminomethylpiperidin-1-yl)-[2,6]naphthyridin-3-yl]pyridin-2-yl}amine], the IC50 was determined as 63 nM in experiment [1] (setting [3]) and 21 nM in experiment [2] (setting [4]).
On to `CN1CCN(c2nc(-c3ccnc(NC4CCCCC4)c3)cc3cnccc23)CC1` [Example 13, Cyclohexyl-{4-[1-(4-methylpiperazin-1-yl)-[2,6]naphthyridin-3-yl]pyridin-2-yl}amine], for which the values for the IC50 in experiment [1] and in experiment [2] were 14 nM and 1 nM, respectively.
For `c1cc2c(NC3CCNC3)nc(-c3ccnc(NC4CCCCC4)c3)cc2cn1` (stereo not drawn) [Example 14, [3-(2-Cyclohexylaminopyridin-4-yl)-[2,6]naphthyridin-1-yl]pyrrolidin-3-ylamine], the IC50 was determined as 6 nM in experiment [1] (setting [3]) and 1 nM in experiment [2] (setting [4]).
For `c1cc2c(NC3CCCNC3)nc(-c3ccnc(NC4CCCCC4)c3)cc2cn1` (stereo not drawn) [Example 15, [3-(2-Cyclohexylaminopyridin-4-yl)-[2,6]naphthyridin-1-yl]piperidin-3-ylamine], in that order: 102 nM and 19 nM.
